Reference: article PMC7705431 (Cell Research, 2020)

Legend:
[1] = target: T1, cathepsin L (Homo sapiens, UniProt P07711); test: Cathepsin L activity assay (fluorometric kit); format: biochemical
T1 construct: purchased Abcam ab65306
Experimental: A positive control of cathepsin L inhibitor I (CTSL, MG-101, 20 μM) was provided in the kit. A total of 2 μL of 10 mM Ac-FR-AFC substrate was added to each well. The samples were incubated at 37 °C for 2 h. Fluorescence was measured using a multifunctional microplate reader (Cytation 3, BioTek, Winooski, VT, USA), at an excitation wavelength of 400 nm and an emission wavelength of 505 nm.

[2] = system: SARS-CoV-2; format: cell-based
[3] = rhesus monkey, in vivo
[4] = in vitro; settings: Vero E6 cells
[5] = preclinical and clinical studies; cited from earlier work
[6] = cited from earlier work
[7] = cited from earlier work; remark: listed apart in the source
[8] = target: T2, human ACE2 (Homo sapiens, UniProt Q9BYF1); test: SPR binding to immobilized human ACE2 (BIAcore S200); settings: read-out: ka
T2 construct: purchased Sino Biological Inc. 10108-H08B
Experimental: The remaining activated sites on the chip were blocked with 75 μL of ethanolamine (1 M, pH 8.5). […] The equilibrium dissociation constant (KD) for binding as well as the association (Ka) and dissociation (Kd) rate constants were determined using the BIA evaluation program (GE, USA).

[9] = target: T3, SARS-CoV-2 spike protein–ACE2 interaction (Homo sapiens, UniProt Q9BYF1); test: co-IP of SARS-CoV-2 spike protein with ACE2, western blot; format: biochemical; settings: drug 10 μM; western blot with anti-ACE2 antibody
Experimental: Co-IP was performed as follows. […] The blots were incubated with anti-rabbit IgG HRP (KPL, USA) and imaged using electrochemiluminescence (ECL, ThermoFisher, USA).

[10] = target: T3, SARS-CoV-2 spike protein–ACE2 interaction; test: ELISA of SARS-CoV-2 spike protein binding to ACE2 crosslinked to microplates; format: biochemical; settings: drug 1 μM; 1 h 37 °C

T3 sequence (Q9BYF1 18-740): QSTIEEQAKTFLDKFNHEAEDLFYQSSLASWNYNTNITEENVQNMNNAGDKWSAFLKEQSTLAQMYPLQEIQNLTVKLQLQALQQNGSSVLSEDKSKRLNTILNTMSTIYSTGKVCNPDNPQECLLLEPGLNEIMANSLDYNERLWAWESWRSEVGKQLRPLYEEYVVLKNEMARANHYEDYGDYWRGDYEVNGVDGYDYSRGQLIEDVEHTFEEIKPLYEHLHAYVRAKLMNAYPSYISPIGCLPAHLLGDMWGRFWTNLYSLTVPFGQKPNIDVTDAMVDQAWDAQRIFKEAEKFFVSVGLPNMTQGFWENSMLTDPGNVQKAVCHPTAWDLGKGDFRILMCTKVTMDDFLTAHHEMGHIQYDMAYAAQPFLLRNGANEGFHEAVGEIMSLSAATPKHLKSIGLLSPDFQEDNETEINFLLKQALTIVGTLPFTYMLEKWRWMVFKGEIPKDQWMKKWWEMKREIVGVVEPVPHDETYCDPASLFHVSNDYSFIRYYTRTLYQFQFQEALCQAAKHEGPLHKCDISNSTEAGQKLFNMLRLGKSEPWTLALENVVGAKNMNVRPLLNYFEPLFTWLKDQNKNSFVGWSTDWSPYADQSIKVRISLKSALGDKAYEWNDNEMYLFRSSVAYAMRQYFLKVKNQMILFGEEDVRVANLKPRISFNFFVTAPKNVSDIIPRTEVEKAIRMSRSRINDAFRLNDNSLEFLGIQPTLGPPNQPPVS
T1 sequence (P07711 114-333, species assumed): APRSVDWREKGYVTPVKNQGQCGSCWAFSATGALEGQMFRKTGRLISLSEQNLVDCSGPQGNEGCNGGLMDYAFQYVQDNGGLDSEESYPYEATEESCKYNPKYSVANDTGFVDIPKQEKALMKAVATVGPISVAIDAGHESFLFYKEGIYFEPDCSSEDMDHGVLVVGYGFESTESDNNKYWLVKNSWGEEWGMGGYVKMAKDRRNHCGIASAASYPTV
T2 sequence (Q9BYF1 18-805): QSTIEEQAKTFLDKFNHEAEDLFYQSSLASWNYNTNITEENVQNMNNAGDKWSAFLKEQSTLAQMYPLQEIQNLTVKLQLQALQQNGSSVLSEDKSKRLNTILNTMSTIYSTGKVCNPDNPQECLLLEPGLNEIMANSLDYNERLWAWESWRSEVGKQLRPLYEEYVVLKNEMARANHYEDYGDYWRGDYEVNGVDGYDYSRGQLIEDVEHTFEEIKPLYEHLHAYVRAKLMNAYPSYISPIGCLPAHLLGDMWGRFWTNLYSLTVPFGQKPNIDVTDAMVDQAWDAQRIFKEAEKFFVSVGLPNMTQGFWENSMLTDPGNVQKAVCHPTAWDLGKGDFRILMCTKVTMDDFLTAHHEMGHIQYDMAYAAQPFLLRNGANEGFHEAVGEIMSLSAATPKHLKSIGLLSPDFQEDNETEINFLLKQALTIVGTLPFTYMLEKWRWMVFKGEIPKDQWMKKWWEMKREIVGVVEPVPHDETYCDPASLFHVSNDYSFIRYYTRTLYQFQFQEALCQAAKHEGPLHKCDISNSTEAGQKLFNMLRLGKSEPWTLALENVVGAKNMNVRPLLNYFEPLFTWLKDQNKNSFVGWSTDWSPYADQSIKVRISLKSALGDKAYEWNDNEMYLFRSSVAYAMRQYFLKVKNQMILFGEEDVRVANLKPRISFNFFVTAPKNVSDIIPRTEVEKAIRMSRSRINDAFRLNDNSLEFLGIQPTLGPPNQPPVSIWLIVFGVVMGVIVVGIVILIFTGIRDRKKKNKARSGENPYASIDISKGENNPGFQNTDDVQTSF

With cathepsin L inhibitor I the “inhibition of cathepsin L enzymatic activity” value ([1]; 20 μM, positive control, Ac-FR-AFC substrate, 37 °C 2 h) was ~ 100%.
In the case of `CCC(CC)COC(=O)[C@H](C)N[P@](=O)(OC[C@H]1O[C@@](C#N)(c2ccc3c(N)ncnn23)[C@H](O)[C@@H]1O)Oc1ccccc1` [Remdesivir], the “inhibition of CPEs” value [2] is reported as “significantly inhibited the CPEs”.
In the case of `CN[C@H]1C(=O)N[C@@H]2Cc3ccc(cc3)Oc3cc4cc(c3O[C@@H]3O[C@H](C(=O)O)[C@@H](O)[C@H](O)[C@H]3NC(=O)CCCCCCCCC(C)C)Oc3ccc(cc3Cl)[C@@H](O)[C@@H]3NC(=O)[C@H](NC(=O)[C@@H]4NC(=O)[C@@H](NC2=O)c2cc(cc(O)c2Cl)Oc2cc1ccc2O)c1ccc(O)c(c1)-c1c(O[C@H]2O[C@H](CO)[C@@H](O)[C@H](O)[C@@H]2O)cc(O)cc1[C@@H](C(=O)NCCCN(C)C)NC3=O` [dalbavancin], the serum half-life [3] is listed as 120 to 170 h, the CC50 [4] is listed as over 3.2 µM and the tolerability [5] is listed as “well tolerated”. For the same compound, the plasma half-life [6] was 120 to 170 h, the protein-bound in plasma [7] was over 90% and the kon [8] was 360000 M⁻¹ s⁻¹. The inhibition at 400 µM ([1]; read-out: inhibition of cathepsin L enzymatic activity) was about 40%.
In the case of Oxiglutatione, the “suppression of SARS-CoV-2 spike protein–ACE2 co-precipitation” value [9] is reported as “suppressed the interaction” and the “inhibition of binding of SARS-CoV-2 spike protein to ACE2 (ELISA)” value [10] is reported as “inhibited the binding”.
With Polymyxin B sulfate the “suppression of SARS-CoV-2 spike protein–ACE2 co-precipitation” value [9] was “suppressed the interaction”.
